Experimental data from publication PMC8456958, “Selective Bacterial Targeting and Infection‐Triggered Release of Antibiotic Colistin Conjugates” (Angewandte Chemie (International Ed. in English), 2021).

Experiments:
[1] = test system: human neutrophil granulocytes (PMN); test: Activation of human neutrophil granulocytes (CD66b, flow cytometry); assay type: cell-based; settings: 0.1 μM fMLP, 1 h at 37 °C with shaking, FITC-labeled anti CD66b antibody; three independent experiments
Protocol: HPLC-MS measurements were carried out in triplicate. Data from MRM measurements were analyzed with Skyline (vers. 18.3, MacCoss Laboratory, University of Washington).
Isolation of Neutrophil Granulocytes from human blood
The MACSxpress Neutrophil Isolation Kit, human from Miltenyi Biotec (Bergisch-Gladbach, Germany) was employed. Fresh venous EDTA blood was processed within 1 h. 65 mg of the MACSxpress whole blood isolation cocktail (lyophilized powder) were mixed with 1 ml of buffer A (from the kit). Then 1 ml of buffer B (from the kit) was added, and the well-mixed cocktail was added to 4 ml of peripheral whole blood in a 15 ml tube. The mixture was gently inverted 3 times and mixed on a tube rotator at 50 rpm for 5 min at rt. The tube was placed, without cap, for 20 min into a strong magnetic field (neodymium magnets). The suspension containing the PMN was collected into a fresh 15 ml tube by careful pipetting. […]
All steps were carried out with cooled media (4 °C) and the vials were kept on ice. Freshly isolated neutrophil granulocytes in RPMI 1640 were counted, followed by centrifugation at 200 x g for 10 min at 4 °C. […]
50 µl of the diluted detection antibody (diluted with Reagent Diluent) with a final concentration of 250 ng/ml were added and incubated for 1.5 h at 37 °C. […] The absorbance was measured at 450 nm […]

[2] = test system: neutrophil granulocytes (PMN); test: Release of neutrophil elastase from neutrophil granulocytes (ELISA); assay type: cell-based, human; settings: stimulation with 0.1 μM fMLP
Protocol: Figure 5 Cellular proof of concept for triggered antibiotic release from 6. a) Release of neutrophil elastase (NE) from neutrophil granulocytes. PMN were isolated and suspended in RPMI 1640. For activation, 0.1 μM fMLP was added. The samples were incubated for 1 h at 37 °C, centrifuged to remove cells, and the NE concentration was determined in the supernatant by ELISA. Values normalized to 1×10^6 cells mL^−1. Data are presented as the mean of 4 separate experiments. *p<0.03 compared to unactivated. b) Activity of NE after co‐cultivation of PMN with E. coli K12 in presence of 1 or 6. 5×10^5 cells mL^−1 of PMN were co‐cultivated with 8×10^6 cells mL^−1 of E. coli K12 (ratio of bacteria : PMN 16:1) for 1 h at 37 °C in RPMI 1640/HEPES‐NaCl 1:1. Data are presented as the mean of two separate experiments. c) Release of colistin from 6. […] After 1 h colistin concentrations were determined by HPLC–MS. […]
50 µl of the diluted detection antibody (diluted with Reagent Diluent) with a final concentration of 250 ng/ml were added and incubated for 1.5 h at 37 °C. […] The absorbance was measured at 450 nm together with a correction wavelength of 570 nm, the value of which was subtracted.
Calculation of results: All samples and standards were measured in duplicate. […]

Question: Which results are given for “N-Formyl-Met-Leu-Phe [fMLP, formyl‐methionyl‐leucyl‐phenylalanine]”?
Answer: increase of the activation state marker CD66b [1]: 2.5 fold; amount of elastase released by neutrophil granulocytes ([2]; RPMI 1640, 1 h, 37 °C, supernatant, ELISA, normalized to 1×10^6 cells mL^−1, mean of 4 experiments, basal 39): 84 ng/mL; amount of elastase released, as activity ([2]; converted from ELISA amount, basal 2.5): 5.5 mU mL^−1
